Source: PubChem BioAssay (NCI)
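48-hour exposure; five concentrations; linearly interpolated endpoints. The concentration for full growth arrest is given as TGI.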

Assays:
Assay in all cases: inhibition of tumour cell growth, NCI panel, 48 h
[1] = tested on: HCT-15 colon
[2] = tested on: SK-MEL-28 melanoma
[3] = tested on: KM12 colon
[4] = tested on: NCI-H460 lung
[5] = tested on: KM20L2 colon
[6] = tested on: UACC-62 melanoma
[7] = tested on: A498 renal
[8] = tested on: HL-60(TB) leukemia
[9] = tested on: SK-MEL-2 melanoma
[10] = tested on: HOP-92 NSCLC
[11] = tested on: OVCAR-3 ovarian
[12] = tested on: SNB-75 CNS
[13] = tested on: NCI-H226 lung
[14] = tested on: IGROV1 ovarian
[15] = tested on: NCI-H522 lung
[16] = tested on: UO-31 renal
[17] = tested on: MALME-3M melanoma
[18] = tested on: SF-295 CNS
[19] = tested on: HCT-116 colon
[20] = tested on: OVCAR-5 ovarian
[21] = tested on: SR leukemia
[22] = tested on: A549 NSCLC
[23] = tested on: OVCAR-8 ovarian
[24] = tested on: 786-0 renal
[25] = tested on: COLO 205 colon
[26] = tested on: K-562 leukemia
[27] = tested on: DMS 114 small cell lung
[28] = tested on: SN12C renal
[29] = tested on: UACC-257 melanoma
[30] = tested on: DLD-1 colon
[31] = tested on: HCC-2998 colon
[32] = tested on: SNB-19 CNS
[33] = tested on: EKVX NSCLC
[34] = tested on: M19-MEL melanoma
[35] = tested on: U251 CNS
[36] = tested on: MOLT-4 leukemia
[37] = tested on: HT29 colon
[38] = tested on: LXFL 529 NSCLC
[39] = tested on: LOX IMVI melanoma
[40] = tested on: CCRF-CEM leukemia
[41] = tested on: CAKI-1 renal
[42] = tested on: SK-OV-3 ovarian
[43] = tested on: HOP-18 NSCLC
[44] = tested on: SNB-78 CNS
[45] = tested on: TK-10 renal
[46] = tested on: SW-620 colon
[47] = tested on: HOP-62 NSCLC
[48] = tested on: SF-539 CNS
[49] = tested on: RPMI-8226 leukemia
[50] = tested on: OVCAR-4 ovarian
[51] = tested on: SK-MEL-5 melanoma
[52] = tested on: M14 melanoma
[53] = tested on: SF-268 CNS
[54] = tested on: RXF 393 renal
[55] = tested on: ACHN renal
[56] = tested on: NCI-H23 lung
[57] = tested on: MDA-MB-231 breast
[58] = tested on: DU-145 prostate
[59] = tested on: MDA-N
[60] = tested on: NCI/ADR-RES ovarian
[61] = tested on: MCF7 breast
[62] = tested on: T-47D breast
[63] = tested on: PC-3 prostate
[64] = tested on: BT-549 breast
[65] = tested on: MDA-MB-435
[66] = tested on: HS 578T breast

`CC(=O)[O-].[O-]c1c(Cl)cc(Cl)cc1/C=N/Nc1ccccn1.[Zn+2]` showed a TGI [1] greater than 100 µM, a TGI [2] greater than 100 µM and a TGI [3] greater than 100 µM. The TGI [4] was greater than 100 µM, the TGI [5] was greater than 100 µM and the TGI [6] was 2.43 µM. The TGI [7] was greater than 100 µM, the TGI [8] was 0.736 µM and the TGI [9] was 1.98 µM. The TGI [10] was 0.803 µM, the TGI [11] was 0.707 µM and the TGI [12] was greater than 100 µM. For the same molecule, the TGI [13] was greater than 100 µM, the TGI [14] was greater than 100 µM and the TGI [15] was 20.6 µM. For the same molecule, the TGI [16] was greater than 100 µM, the TGI [17] was greater than 100 µM and the TGI [18] was 5.41 µM. The TGI [19] was greater than 100 µM, the TGI [20] was 6.43 µM and the TGI [21] was 0.675 µM. For the same molecule, the TGI [22] was greater than 100 µM, the TGI [23] was 0.837 µM and the TGI [24] was greater than 100 µM. For the same molecule, the TGI [25] was greater than 100 µM, the TGI [26] was greater than 100 µM and the TGI [27] was 0.605 µM. It also gave a TGI [28] greater than 100 µM, a TGI [29] greater than 100 µM and a TGI [30] greater than 100 µM. It also gave a TGI [31] greater than 100 µM, a TGI [32] greater than 100 µM and a TGI [33] of 9.01 µM. The TGI [34] was greater than 100 µM, the TGI [35] was greater than 100 µM and the TGI [36] was 0.581 µM. The TGI [37] was greater than 100 µM, the TGI [38] was greater than 100 µM and the TGI [39] was greater than 100 µM.

`CSc1nc(NC2OC(COC(C)=O)C(OC(C)=O)C(OC(C)=O)C2OC(C)=O)c(N=C(C)C(C)=O)c(=O)n1C` (configuration not stated) showed a TGI [40] greater than 100 µM, a TGI [3] greater than 100 µM and a TGI [6] greater than 100 µM. For the same molecule, the TGI [8] was greater than 100 µM, the TGI [9] was greater than 100 µM and the TGI [41] was greater than 100 µM. The TGI [10] was greater than 100 µM, the TGI [11] was greater than 100 µM and the TGI [13] was greater than 100 µM. The TGI [14] was greater than 100 µM, the TGI [16] was greater than 100 µM and the TGI [42] was greater than 100 µM. The TGI [17] was greater than 100 µM, the TGI [43] was greater than 100 µM and the TGI [44] was greater than 100 µM. The TGI [45] was greater than 100 µM, the TGI [18] was greater than 100 µM and the TGI [19] was greater than 100 µM. It also gave a TGI [46] greater than 100 µM, a TGI [22] greater than 100 µM and a TGI [23] greater than 100 µM. For the same molecule, the TGI [24] was greater than 100 µM, the TGI [25] was greater than 100 µM and the TGI [47] was greater than 100 µM. It also gave a TGI [26] greater than 100 µM, a TGI [48] greater than 100 µM and a TGI [27] greater than 100 µM. For the same molecule, the TGI [49] was greater than 100 µM, the TGI [29] was greater than 100 µM and the TGI [30] was greater than 100 µM. The TGI [50] was greater than 100 µM, the TGI [31] was greater than 100 µM and the TGI [51] was greater than 100 µM. For the same molecule, the TGI [52] was greater than 100 µM, the TGI [32] was greater than 100 µM and the TGI [33] was greater than 100 µM. For the same molecule, the TGI [34] was greater than 100 µM, the TGI [36] was greater than 100 µM and the TGI [37] was greater than 100 µM. The TGI [38] was greater than 100 µM.

`CCO[C@@H]1OC(=O)[C@@](C)(C(C)=O)[C@@H]1C` was tested, and the TGI [40] was 49.5 µM, the TGI [2] was 29.9 µM and the TGI [3] was greater than 100 µM. It also gave a TGI [4] greater than 100 µM, a TGI [5] greater than 100 µM and a TGI [6] of 53.3 µM. The TGI [7] was greater than 100 µM, the TGI [8] was 78.6 µM and the TGI [9] was 52 µM. For the same molecule, the TGI [10] was 94.9 µM, the TGI [11] was 31.4 µM and the TGI [12] was 25.7 µM. It also gave a TGI [14] greater than 100 µM, a TGI [15] greater than 100 µM and a TGI [53] of 44.1 µM. For the same molecule, the TGI [16] was greater than 100 µM, the TGI [42] was greater than 100 µM and the TGI [17] was 77.5 µM. The TGI [44] was 84.9 µM, the TGI [18] was 66 µM and the TGI [20] was greater than 100 µM. For the same molecule, the TGI [21] was greater than 100 µM, the TGI [25] was greater than 100 µM and the TGI [47] was 56.6 µM. It also gave a TGI [26] greater than 100 µM, a TGI [27] of 68.9 µM and a TGI [49] of 48.6 µM. For the same molecule, the TGI [29] was 78.9 µM, the TGI [50] was greater than 100 µM and the TGI [54] was 70.2 µM. For the same molecule, the TGI [52] was 70.4 µM, the TGI [32] was 68.3 µM and the TGI [34] was 40.9 µM. The TGI [35] was 56.7 µM, the TGI [36] was 61.1 µM and the TGI [37] was 34.6 µM. The TGI [55] was greater than 100 µM, the TGI [56] was 28.7 µM and the TGI [38] was 47.6 µM.

`O=C(CN(c1ccc(S(=O)(=O)O)cc1)c1ccc(S(=O)(=O)O)cc1)Nn1cnc2ccc(S(=O)(=O)N(c3ccc(S(=O)(=O)O)cc3)c3ccc(S(=O)(=O)O)cc3)cc2c1=O` was tested, and the TGI [57] was greater than 100 µM, the TGI [40] was greater than 100 µM and the TGI [1] was greater than 100 µM. The TGI [2] was greater than 100 µM, the TGI [3] was greater than 100 µM and the TGI [4] was greater than 100 µM. For the same molecule, the TGI [6] was greater than 100 µM, the TGI [7] was greater than 100 µM and the TGI [8] was greater than 100 µM. For the same molecule, the TGI [58] was greater than 100 µM, the TGI [9] was greater than 100 µM and the TGI [41] was greater than 100 µM. The TGI [10] was greater than 100 µM, the TGI [11] was greater than 100 µM and the TGI [12] was greater than 100 µM. For the same molecule, the TGI [13] was greater than 100 µM, the TGI [59] was greater than 100 µM and the TGI [14] was greater than 100 µM. For the same molecule, the TGI [60] was greater than 100 µM, the TGI [15] was greater than 100 µM and the TGI [53] was greater than 100 µM. The TGI [16] was greater than 100 µM, the TGI [61] was greater than 100 µM and the TGI [42] was greater than 100 µM. The TGI [17] was greater than 100 µM, the TGI [62] was greater than 100 µM and the TGI [45] was greater than 100 µM. It also gave a TGI [18] greater than 100 µM, a TGI [63] greater than 100 µM and a TGI [19] greater than 100 µM. It also gave a TGI [20] greater than 100 µM, a TGI [21] greater than 100 µM and a TGI [46] greater than 100 µM. For the same molecule, the TGI [22] was greater than 100 µM, the TGI [64] was greater than 100 µM and the TGI [23] was greater than 100 µM. The TGI [24] was greater than 100 µM, the TGI [25] was greater than 100 µM and the TGI [47] was greater than 100 µM. The TGI [26] was greater than 100 µM, the TGI [48] was greater than 100 µM and the TGI [49] was greater than 100 µM. The TGI [28] was greater than 100 µM, the TGI [29] was greater than 100 µM and the TGI [50] was greater than 100 µM. It also gave a TGI [31] greater than 100 µM, a TGI [51] greater than 100 µM and a TGI [65] greater than 100 µM. It also gave a TGI [54] greater than 100 µM, a TGI [52] greater than 100 µM and a TGI [32] greater than 100 µM. It also gave a TGI [33] greater than 100 µM, a TGI [35] greater than 100 µM and a TGI [66] greater than 100 µM. For the same molecule, the TGI [36] was greater than 100 µM, the TGI [37] was greater than 100 µM and the TGI [55] was greater than 100 µM. It also gave a TGI [56] greater than 100 µM and a TGI [39] greater than 100 µM.
